From patent US4701458A (priority 1985, dated 1987)
Where “and” joins values, the source holds several entries; their conditions need not be identical. Identical values can stand only once. Entries after “also recorded” stand apart in the source; their conditions may differ. Like-named read-outs stand apart in the source and are kept apart here.

Columns and labels:
guanylate cyclase [1] = target: guanylate cyclase (Rattus norvegicus, UniProt P23897); experiment: biochemical; set-up: species or system Sprague-Dawley rat; settings: for inhibition at 1000 µM / % Inhibition of ST-activated guanylate cyclase activity: 1.0 mM; for inhibition at 10000 µM: 10 mM; for inhibition at 100 µM: 0.1 mM; for % Inhibition of ST-activated guanylate cyclase activity: ST-activated (6 units/ml)
[2] = tested on: Escherichia coli heat-stable enterotoxin (ST)-induced intestinal fluid secretion; type: in vivo, suckling mice
guanylate cyclase [3] = settings: cited from earlier work
[4] = tested on: basal intestinal fluid secretion; set-up: species or system suckling mice; settings: mouse, in vivo
[5] = tested on: 8-bromo cyclic GMP-induced intestinal fluid secretion; set-up: species or system suckling mice; settings: mouse, in vivo
[6] = tested on: intestinal fluid secretion; settings: in vivo; cited from earlier work
ST = settings: cited from earlier work
[7] = read-out: % Inhibition of ST-activated guanylate cyclase activity, ST-activated (6 units/ml)
[8] = read-out: % Inhibition of basal guanylate cyclase activity, basal
[9] = read-out: inhibition of ST-activated guanylate cyclase activity, ST-activated (6 ST units/ml)
[10] = read-out: inhibition of basal guanylate cyclase activity, basal

Chain of guanylate cyclase (Rattus norvegicus, UniProt P23897) (P23897 23-1072): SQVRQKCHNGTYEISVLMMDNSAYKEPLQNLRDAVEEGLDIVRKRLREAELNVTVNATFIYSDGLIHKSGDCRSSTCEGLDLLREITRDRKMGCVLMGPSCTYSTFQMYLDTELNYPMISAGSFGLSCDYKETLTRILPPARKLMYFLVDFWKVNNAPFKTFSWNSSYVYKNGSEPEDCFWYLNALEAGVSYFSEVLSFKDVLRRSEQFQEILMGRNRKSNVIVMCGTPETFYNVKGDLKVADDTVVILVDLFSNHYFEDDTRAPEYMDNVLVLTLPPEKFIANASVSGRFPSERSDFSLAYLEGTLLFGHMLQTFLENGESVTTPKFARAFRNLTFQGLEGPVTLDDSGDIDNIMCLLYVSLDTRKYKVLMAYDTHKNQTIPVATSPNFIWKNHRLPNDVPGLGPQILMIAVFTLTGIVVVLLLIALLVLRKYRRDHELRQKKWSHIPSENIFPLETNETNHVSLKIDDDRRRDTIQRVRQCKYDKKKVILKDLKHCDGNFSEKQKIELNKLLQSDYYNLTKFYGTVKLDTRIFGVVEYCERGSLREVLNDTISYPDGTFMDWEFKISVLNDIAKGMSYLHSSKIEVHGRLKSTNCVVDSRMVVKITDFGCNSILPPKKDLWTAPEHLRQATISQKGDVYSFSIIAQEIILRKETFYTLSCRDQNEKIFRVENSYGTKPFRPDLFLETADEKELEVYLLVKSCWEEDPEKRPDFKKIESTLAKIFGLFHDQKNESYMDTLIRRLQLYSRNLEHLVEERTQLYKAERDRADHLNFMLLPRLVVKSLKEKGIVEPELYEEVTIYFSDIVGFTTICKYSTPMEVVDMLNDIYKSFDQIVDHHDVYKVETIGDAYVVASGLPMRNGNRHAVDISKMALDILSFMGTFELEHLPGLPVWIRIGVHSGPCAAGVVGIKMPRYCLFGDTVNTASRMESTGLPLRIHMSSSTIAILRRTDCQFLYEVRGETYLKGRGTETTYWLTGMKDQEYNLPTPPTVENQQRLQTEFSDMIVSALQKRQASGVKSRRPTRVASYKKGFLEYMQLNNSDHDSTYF

Compound: NCCSSCCN [Cystamine, cystamine]
- inhibition at 1000 µM (guanylate cyclase [1]; [7]): 73%
- inhibition at 1000 µM (guanylate cyclase [1]; [8]): 45%
- inhibition at 10000 µM (guanylate cyclase [1]; [9]): 82%
- inhibition at 10000 µM (guanylate cyclase [1]; [10]): 54%
- inhibition at 100 µM (guanylate cyclase [1]; read-out: reduction in basal guanylate cyclase activity, basal): 13%
- inhibition at 100 µM (guanylate cyclase [1]; read-out: reduction of ST-induced guanylate cyclase activity, ST-activated (6 ST units/ml)): 32%
- effect on ST-induced secretion (in words) ([2]; mouse, in vivo): did not significantly affect ST-induced secretion
- effect on ST-induced secretion (in words) ([2]; mouse, in vivo, sc): reduce ST-induced intestinal secretion; also recorded: significantly reduce secretion; also recorded: significantly reduced ST-induced secretion
- intestinal fluid ratio (intestinal weight to remaining body weight), ST-induced ([2]; mouse, in vivo, sc): 0.0935±0.003 and 0.1154± 0.006
- effect on guanylate cyclase (in words) (guanylate cyclase [3]): very marked effects on guanylate cyclase activity; also recorded: almost completely inactivate
- effect on basal intestinal fluid level (in words) ([4]; sc): did not significantly alter basal intestinal fluid levels
- Intestinal:Body Wt. Ratio, 8-bromo cyclic GMP-induced [5]: 0.1188 ± 0.003
- effect on 8-bromo cyclic GMP-induced intestinal secretion (in words) [5]: no effect
- Intestinal:Body Wt. Ratio, 8-bromo cyclic GMP-induced ([5]; sc): 0.1115 ± 0.003

Compound: N[C@@H](CCSC[C@H](N)C(=O)O)C(=O)O [Cystathionine, cystathionine]
- effect on ST-activated guanylate cyclase activity (in words) (guanylate cyclase [1]; ST-activated, concentration not given): no effect
- effect on basal guanylate cyclase activity (in words) (guanylate cyclase [1]; concentration not given): no effect
- effect on ST-induced fluid secretion (in words) ([2]; mouse, in vivo): no alteration
- effect on ST-induced fluid secretion (in words) ([2]; mouse, in vivo, sc): did not inhibit ST-induced fluid secretion
- effect on basal responses (in words) [4]: no alteration
- effect on basal secretion (in words) ([4]; sc): nor alter the basal secretory ratio
- Intestinal:Body Wt. Ratio, 8-bromo cyclic GMP-induced [5]: 0.1043 ± 0.002
- effect on 8-bromo cyclic GMP-induced intestinal secretion (in words) [5]: no alteration
- Intestinal:Body Wt. Ratio, 8-bromo cyclic GMP-induced ([5]; sc): 0.1175 ± 0.004

Compound: NCCCNCCSP(=O)(O)O [S-2-(3-aminopropylamino) ethyl phosphorothioic acid]
- Ratio ± SEM, ST-induced ([2]; mouse, in vivo): 0.1034 ± 0.008 and 0.0685 ± 0.003

Compound: NO [hydroxylamine]
- effect on guanylate cyclase (in words) (guanylate cyclase [3]): activates guanylate cyclase
- effect on intestinal ion transport (in words) [6]: causes intestinal ion transport alterations similar to those seen with ST

Compound: COc1ccc(O)c(C(C)(C)C)c1 [Butylated hydroxyanisole]
- effect on ST activation of guanylate cyclase (in words) (guanylate cyclase [3]): significantly reduces
- effect on ST-induced intestinal fluid secretion (in words) [6]: significantly reduces

Compound: N[C@H](CSSC[C@@H](N)C(=O)O)C(=O)O [D-cystine]
- effect on ST-induced guanylate cyclase activity (in words) (guanylate cyclase [1]; ST-activated, 1 mM): significantly reduced
- effect on basal guanylate cyclase activity (in words) (guanylate cyclase [1]; 1 mM): neither drug affected basal activity
- effect on basal guanylate cyclase activity (in words) (guanylate cyclase [1]; concentration not given): Neither compound inhibited basal guanylate cyclase activity
- inhibition at 1000 µM (guanylate cyclase [1]; [7]): 33%
- inhibition at 1000 µM (guanylate cyclase [1]; [8]): 0%
- effect on ST-induced intestinal secretion (in words) ([2]; mouse, in vivo): significantly reduced
- intestinal fluid ratio (intestinal weight to remaining body weight), ST-induced ([2]; mouse, in vivo): 0.1034±0.004 and 0.1197±0.004
- effect on ST-induced secretion (in words) ([2]; mouse, in vivo, sc): neither compound reduced intestinal secretion
- intestinal fluid ratio (intestinal weight to remaining body weight), ST-induced ([2]; mouse, in vivo, sc): 0.1092±0.011
- effect on basal secretion (in words) ([4]; sc): Neither agent given s.c. or i.g. significantly altered basal secretion
- Intestinal:Body Wt. Ratio, 8-bromo cyclic GMP-induced [5]: 0.1048 ± 0.004
- effect on 8-bromo cyclic GMP-induced intestinal secretion (in words) [5]: Neither compound altered cyclic GMP-induced intestinal secretion
- Intestinal:Body Wt. Ratio, 8-bromo cyclic GMP-induced ([5]; sc): 0.1001 ± 0.005

Compound: CC(=O)N[C@@H](CS)C(=O)O [Acetylcysteine, acetylcysteine]
- % Inhibition of ST-activated guanylate cyclase activity (guanylate cyclase [1]): 14%
- % Inhibition of ST-activated guanylate cyclase activity (guanylate cyclase [1]; listed as acetylcysteine): 15%
- effect on basal guanylate cyclase activity (in words) (guanylate cyclase [1]; 1 mM): did not alter basal guanylate cyclase activity; also recorded: None of the other sulfhydryl compounds (1 mM) affected basal enzyme activity
- inhibition at 1000 µM (guanylate cyclase [1]; [7]): 11 to 21%
- inhibition at 1000 µM (guanylate cyclase [1]; [8]): 0%
- effect on ST-induced responses (in words) ([2]; mouse, in vivo): No significant inhibition
- intestinal fluid ratio (intestinal weight to remaining body weight), ST-induced ([2]; mouse, in vivo): 0.0796±0.005 and 0.1061±0.005
- effect on ST-induced secretion (in words) ([2]; mouse, in vivo, sc): no inhibition
- intestinal fluid ratio (intestinal weight to remaining body weight), ST-induced ([2]; mouse, in vivo, sc): 0.0804±0.003
- effect on basal fluid level (in words) ([4]; sc): not altered
- effect on basal intestinal fluid level (in words) ([4]; sc): not affected
- Intestinal:Body Wt. Ratio, 8-bromo cyclic GMP-induced [5]: 0.1028 ± 0.003
- Intestinal:Body Wt. Ratio, 8-bromo cyclic GMP-induced ([5]; sc): 0.1024 ± 0.003

Compound: O[C@H](CS)[C@H](O)CS (racemic) [dithiothreitol]
- effect on biological activity of ST (in words) (ST): loses biological activity promptly

Compound: N[C@@H](CS)C(=O)O [L-cysteine]
- % Inhibition of ST-activated guanylate cyclase activity (guanylate cyclase [1]): 11%
- effect on basal guanylate cyclase activity (in words) (guanylate cyclase [1]; 1 mM): did not alter basal guanylate cyclase activity; also recorded: None of the other sulfhydryl compounds (1 mM) affected basal enzyme activity
- inhibition at 1000 µM (guanylate cyclase [1]; [7]): 11 to 21%
- inhibition at 1000 µM (guanylate cyclase [1]; [8]): 0%
- intestinal fluid ratio (intestinal weight to remaining body weight), ST-induced ([2]; mouse, in vivo): 0.0680±0.001 and 0.0877±0.006
- effect on ST-induced fluid responses (in words) ([2]; mouse, in vivo, sc): neither D- or L-cysteine inhibited ST-induced fluid responses
- effect on basal intestinal fluid level (in words) ([4]; sc): No effect on basal fluid level
- Intestinal:Body Wt. Ratio, 8-bromo cyclic GMP-induced [5]: 0.1097 ± 0.004
- Intestinal:Body Wt. Ratio, 8-bromo cyclic GMP-induced ([5]; sc): 0.1051 ± 0.006

Compound: NCCS [Cysteamine, cysteamine]
- % Inhibition of ST-activated guanylate cyclase activity (guanylate cyclase [1]): 21%
- % Inhibition of ST-activated guanylate cyclase activity (guanylate cyclase [1]; listed as cysteamine): 21%
- effect on basal guanylate cyclase activity (in words) (guanylate cyclase [1]; 1 mM): did not alter basal guanylate cyclase activity; also recorded: did not affect basal activity
- inhibition at 1000 µM (guanylate cyclase [1]; [7]): 11 to 21%
- inhibition at 1000 µM (guanylate cyclase [1]; [8]): 0%
- inhibition at 10000 µM (guanylate cyclase [1]; [9]): 63%
- inhibition at 10000 µM (guanylate cyclase [1]; [10]): 15%
- P of inhibition of ST-induced secretion (FIG. 2) ([2]; mouse, in vivo): < 0.001
- effect on ST-induced fluid secretion (in words) ([2]; mouse, in vivo): most effective inhibitory agent
- effect on ST-induced secretion (in words) ([2]; mouse, in vivo): significantly reduced; also recorded: reduced secretion
- intestinal fluid ratio (intestinal weight to remaining body weight), ST-induced ([2]; mouse, in vivo): 0.0804±0.005
- intestinal-fluid ratio ± SEM ([2]; mouse, in vivo): .125 ± 0.003
- intestinal-fluid ratio ± SEM, experiment #1 ([2]; mouse, in vivo): .127 ± .007
- intestinal-fluid ratio ± SEM, experiment #2 ([2]; mouse, in vivo): .119 ± .006
- effect on ST-induced ratio (in words) ([2]; mouse, in vivo, sc): not significantly changed
- intestinal fluid ratio (intestinal weight to remaining body weight), ST-induced ([2]; mouse, in vivo, sc): 0.0765±0.003 and 0.0840 ± 0.005
- effect on basal secretion (in words) [4]: did not alter basal secretion
- effect on basal fluid level (in words) ([4]; sc): not affected
- Intestinal:Body Wt. Ratio, 8-bromo cyclic GMP-induced [5]: 0.1106 ± 0.010
- Intestinal:Body Wt. Ratio, 8-bromo cyclic GMP-induced ([5]; sc): 0.1071 ± 0.005

Compound: COc1ccc2cc3[n+](cc2c1OC)CCc1cc2c(cc1-3)OCO2 [berberine]
- intestinal-fluid ratio ± SEM ([2]; mouse, in vivo): .122 ± 0.003
- intestinal-fluid ratio, pre-treatment ([2]; mouse, in vivo): .122 ± .004

Compound: N[C@@H](CS[35S]C[C@H](N)C(=O)O)C(=O)O [^35 S-cystine]
- effect on guanylate cyclase (in words) (guanylate cyclase [3]): reversible loss of enzyme activity

Compound: OCCS [2-mercaptoethanol]
- effect on biological activity of ST (in words) (ST): loses biological activity promptly

Compound: N[C@@H](CSSC[C@H](N)C(=O)O)C(=O)O [L-cystine]
- effect on ST-induced guanylate cyclase activity (in words) (guanylate cyclase [1]; ST-activated, 1 mM): significantly reduced
- effect on basal guanylate cyclase activity (in words) (guanylate cyclase [1]; 1 mM): neither drug affected basal activity
- effect on basal guanylate cyclase activity (in words) (guanylate cyclase [1]; concentration not given): Neither compound inhibited basal guanylate cyclase activity
- inhibition at 1000 µM (guanylate cyclase [1]; [7]): 39%
- inhibition at 1000 µM (guanylate cyclase [1]; [8]): 0%
- effect on ST-induced intestinal secretion (in words) ([2]; mouse, in vivo): significantly reduced
- intestinal fluid ratio (intestinal weight to remaining body weight), ST-induced ([2]; mouse, in vivo): 0.0940±0.004 and 0.1288±0.003
- effect on ST-induced secretion (in words) ([2]; mouse, in vivo, sc): neither compound reduced intestinal secretion
- intestinal fluid ratio (intestinal weight to remaining body weight), ST-induced ([2]; mouse, in vivo, sc): 0.1115±0.006
- effect on basal secretion (in words) ([4]; sc): Neither agent given s.c. or i.g. significantly altered basal secretion
- Intestinal:Body Wt. Ratio, 8-bromo cyclic GMP-induced [5]: 0.1191 ± 0.004
- effect on 8-bromo cyclic GMP-induced intestinal secretion (in words) [5]: Neither compound altered cyclic GMP-induced intestinal secretion
- Intestinal:Body Wt. Ratio, 8-bromo cyclic GMP-induced ([5]; sc): 0.1043 ± 0.004

Compound: c1ccc2c(CC3=NCCN3)cccc2c1 [Naphazoline, naphazoline]
- effect against ST (in words) ([2]; 10 mM): effective
- intestinal-fluid ratio ± SEM, experiment #1 ([2]; mouse, in vivo): .150 ± .005
- intestinal-fluid ratio ± SEM, experiment #2 ([2]; mouse, in vivo): .123 ± .005
- death of mice (N = 3): ALL DEAD
- margin to lethal dose (in words) (mouse, in vivo): only one log less than a lethal dose

Compound: N[C@H](CS)C(=O)O [D-cysteine]
- % Inhibition of ST-activated guanylate cyclase activity (guanylate cyclase [1]): 16%
- effect on basal guanylate cyclase activity (in words) (guanylate cyclase [1]; 1 mM): did not alter basal guanylate cyclase activity; also recorded: None of the other sulfhydryl compounds (1 mM) affected basal enzyme activity
- inhibition at 1000 µM (guanylate cyclase [1]; [7]): 11 to 21%
- inhibition at 1000 µM (guanylate cyclase [1]; [8]): 0%
- intestinal fluid ratio (intestinal weight to remaining body weight), ST-induced ([2]; mouse, in vivo): 0.0768±0.002 and 0.1121±0.005
- effect on ST-induced fluid responses (in words) ([2]; mouse, in vivo, sc): neither D- or L-cysteine inhibited ST-induced fluid responses
- effect on basal intestinal fluid level (in words) ([4]; sc): No effect on basal fluid level
- Intestinal:Body Wt. Ratio, 8-bromo cyclic GMP-induced [5]: 0.1191 ± 0.006
- Intestinal:Body Wt. Ratio, 8-bromo cyclic GMP-induced ([5]; sc): 0.1155 ± 0.005
